Test results reported in ChEMBL document CHEMBL3272336, “Potential histidine decarboxylase inhibitors. 1. alpha- and beta-substituted histidine analogues” (J Med Chem, 1977).
Activity calls are given as the source filed them. The rule behind the calls is not given here.

Legend:
[1] = target: T1, Histidine decarboxylase (Rattus norvegicus) (UniProt P16453); assay: Inhibition of histidine decarboxylase in rat pyloric stomach using [carboxyl-14C]-histidine as substrate at 10^-4 M by 14CO2 trapping assay relative to control; assay type: tissue-based
T1 sequence (whole entry): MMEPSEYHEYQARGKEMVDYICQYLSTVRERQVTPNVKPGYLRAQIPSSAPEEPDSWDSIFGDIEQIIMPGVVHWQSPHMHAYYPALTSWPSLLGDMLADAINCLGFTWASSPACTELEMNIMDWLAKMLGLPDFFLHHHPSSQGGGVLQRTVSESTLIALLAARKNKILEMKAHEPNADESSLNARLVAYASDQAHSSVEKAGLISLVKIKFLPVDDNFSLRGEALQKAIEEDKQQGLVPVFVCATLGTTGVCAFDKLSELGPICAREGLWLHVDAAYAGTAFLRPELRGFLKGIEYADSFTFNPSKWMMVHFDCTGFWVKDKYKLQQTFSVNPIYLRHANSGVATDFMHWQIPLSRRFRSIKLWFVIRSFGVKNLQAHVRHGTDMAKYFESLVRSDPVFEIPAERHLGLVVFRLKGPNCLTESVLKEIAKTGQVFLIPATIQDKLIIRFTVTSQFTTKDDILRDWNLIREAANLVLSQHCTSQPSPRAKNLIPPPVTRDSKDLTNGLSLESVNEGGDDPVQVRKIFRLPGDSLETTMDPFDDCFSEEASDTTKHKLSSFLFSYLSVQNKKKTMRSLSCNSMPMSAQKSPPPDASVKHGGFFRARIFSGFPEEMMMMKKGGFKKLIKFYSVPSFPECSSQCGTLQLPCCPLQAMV

[2] = target: T1, Histidine decarboxylase (Rattus norvegicus); assay: Inhibition of histidine decarboxylase in rat pyloric stomach using [carboxyl-14C]-histidine as substrate at 10^-3 M by 14CO2 trapping assay relative to control; assay type: tissue-based

Compound | inhibition [1] | inhibition [2]
C[C@](N)(Cc1c[nH]cn1)C(=O)O | 30% | 40%
CC(C)(c1c[nH]cn1)[C@H](N)C(=O)O |  | 0%
CCCC[C@](N)(Cc1c[nH]cn1)C(=O)O |  | 0%
N[C@@]1(Cc2c[nH]cn2)CCOC1=O | 12% | 19%
CC[C@](N)(Cc1c[nH]cn1)C(=O)O | 6% | 14%
CC(c1c[nH]cn1)[C@H](N)C(=O)O (some centres not stated) | inactive | 
NC(CCc1c[nH]cn1)C(=O)O (configuration not stated) |  | 0%
CC(C)[C@](N)(Cc1c[nH]cn1)C(=O)O | 0% | 1%
